According to US20130040882A1, “USE OF FIBROBLAST GROWTH FACTOR FRAGMENTS” (NOVARTIS AG, priority 2003, published 2013):
Read-outs that look alike come from different tables or passages of the source.

Test system: transcript levels in tissues (GH/IGF and glucagon/insulin axes, SSTR signalling)
Assay type: in vivo, cynomolgus monkeys
[1] = RNA expression fold change, brown fat
[2] = RNA expression fold change, pancreas
[3] = RNA expression fold change, pituitary

cyclo[4-(NH2—C2H4—NH—CO—O)Pro-Phg-DTrp-Lys-Tyr(4-Bzl)-Phe] [SOM230]
Gene expression (AvgDiff): IGF-1 (BROWN FAT): 389
Gene expression (AvgDiff): IGFBP 4 (BROWN FAT): 763
Gene expression (AvgDiff): IRS 2 (BROWN FAT): 146
Gene expression (AvgDiff): SSTR3 (BROWN FAT): 194
Gene expression (AvgDiff): IGF-1 (PANCREAS): 89
Gene expression (AvgDiff): SSTR2 (PANCREAS): 156
Gene expression (AvgDiff): GR (PITUITARY): 109
Gene expression (AvgDiff): IGF-2 (PITUITARY): 70
Gene expression (AvgDiff): IGFBP, acid labile subunit (PITUITARY): 83
Gene expression (AvgDiff): SSTR3 (PITUITARY): 57
Actin related protein 2/3 complex, subunit 1A (41 kD) ↓ [1]: (41 kD) ↓ x2.5
Adrenergic, β-3-, receptor ↑ [1]: receptor ↑ x2.5
Apotosis-associated tyrosine kinase ↑ [1]: tyrosine kinase ↑ x3.5
CD2 antigen (cytoplasmic tail)-binding protein 2 ↑ [1]: protein 2 ↑ x2.5
CSF 1 (macrophage) ↓ [1]: ↓ x2
CSF 3 receptor (granulocyte) ↑ [1]: (granulocyte) ↑ x3
Ca++ channel, voltage dependent, α 1H subunit ↑ [1]: ↑ x3
Cadherin 5, VE-cadherin (vascular epithelium) ↑ [1]: (vascular epithelium) ↑ x3
Cadherin 13, H-cadherin (heart) ↓ [1]: (heart) ↓ x2
Cadherin F1B1 ↓ [1]: Cadherin F1B1 ↓ x4
Calcium/calmodulin-dependent protein kinase I ↓ [1]: kinase I ↓ x3.5
Capping protein (actin filament), gelsolin-like ↓ [1]: ↓ x2.5
Coagulation factor XIIIAI subunit precursor ↓ [1]: ↓ x5
Cyclin T2 ↑ [1]: Cyclin T2 ↑ x2.5
Dopamine receptor D3 ↑ [1]: x2.5
Dual specificity PP MKP-5 ↑ [1]: MKP-5 ↑ x2.5
EGF receptor pathway substrate 15 ↓ [1]: substrate 15 ↓ x2
Endothelial cell GF 1 (platelet derived) ↓ [1]: (platelet derived) ↓ x2
Endothelial differentiation, sphingolipid G-protein-coupled receptor, 5 ↑ [1]: coupled receptor, 5 ↑ x2.5
FSHR ↑ [1]: FSHR ↑ x2.5
Fms-related tyrosine kinase 1 (VEGF/vascular permeability factor receptor) ↓ [1]: receptor) ↓ x4.5
Follistatin-like 3 glycoprotein ↑ [1]: glycoprotein ↑ x3
G1 to S phase transition ↓ [1]: ↓ x1.5
G protein-activated inwardly rectifying K+ channel ↑ [1]: channel ↑ x3.5
G protein-coupled receptor 1 ↓ [1]: receptor 1 ↓ x2.5
G α inhibiting activity polypeptide 3 interacting protein ↓ [1]: protein ↓ x5
GLUR, metabotropic 1 ↑ [1]: ↑ x2
Guanine nucleotide binding protein (G protein), β polypeptide 3 ↑ [1]: ↑ x2.5
IFN induced transmembrane protein 1 ↑ [1]: ↑ x2.5
IFN γ-inducible protein 30 (IP30) ↓ [1]: 30 (IP30) ↓ x3.5
IGF-1 ↓ [1]: IGF-1 ↓ x1.5
IGF-binding protein 4 ↓ [1]: ↓ x2
IL 3 (CSF, multiple) ↑ [1]: ↑ x2
IL 5R, α ↑ [1]: IL 5R, α↑ x2.5
IL 7R precursor ↑ [1]: IL 7R precursor ↑ x2
IRS (insulin receptor substrate) 2 ↑ [1]: substrate) 2 ↑ x2.5
Neuroblastoma apoptosis-related RNA bindingprotein ↓ [1]: bindingprotein ↓ x3
Neuroblastoma ↓ [1]: Neuroblastoma ↓ x2.5
Oxytocin, prepro-(neurophysin I) ↑ [1]: (neurophysin I) ↑ x2.5
PCNA ↓ [1]: PCNA ↓ x2.5
PI glycan, class F ↓ [1]: PI glycan, class F ↓ x2
PI glycan, class L ↑ [1]: PI glycan, class L ↑ x3.5
PI-3-kinase. regulatory subunit, polypeptide 2 (p85 β) ↓ [1]: (p85 β) ↓ x3.5
PLC β4 ↑ [1]: PLC β4 ↑ x2
PP 2, regulatory subunit B (B56), γ isoform ↓ [1]: B (B56), γ isoform ↓ x1.5
PP 5, catalytic subunit ↑ [1]: ↑ x2.5
Pentaxin-related gene, rapidly induced by IL-1 ↓ [1]: ↓ x7.5
T3 receptor ↑ [1]: T3 receptor ↑ x2
TGF β3 ↑ [1]: TGF β3 ↑ x2.5
TGF β-activated kinase-binding protein 1 ↑ [1]: binding protein 1 ↑ x2.5
THR interactor 10 ↓ [1]: THR interactor 10 ↓ x3
THR interactor 12 ↓ [1]: ↓ x1.5
TNF type 1 receptor associated protein ↓ [1]: associated protein ↓ x2
VGF nerve growth factor inducible ↑ [1]: factor inducible ↑ x2
BCL2/adenovirus E1B 19 kD-intracting protein 1, isoform BNIP1-a ↓ [2]: BNIP1-a ↓ x1.5
CRHR 1 ↓ [2]: CRHR 1 ↓ x2
Ca++ channel, voltage dependent, α 1F subunit ↓ [2]: ↓ x4.5
Cdki 1C ↑ [2]: Cdki 1C ↑ x2
Chymotrypsin-like ↑ [2]: ↑ x3.5
Cyclin D1 ↑ [2]: Cyclin D1 ↑ x2
Cyclin T2 ↓ [2]: Cyclin T2 ↓ x2
G-CSF protein ↓ [2]: G-CSF protein ↓ x2
GLUR precursor, flip isoform ↑ [2]: flip isoform ↑ x3
Gastrin-releasing peptide receptor ↓ [2]: peptide receptor ↓ x5
IFN regulatory factor 3 ↑ [2]: factor 3 ↑ x5
IGF-1 ↑ [2]: IGF-1 ↑ x4.5
IL 1 receptor antagonist ↓ [2]: antagonist↓ x2
IP-1-phosphatase ↑ [2]: ↑ x2.5
Integrin α2b precursor ↑ [2]: precursor ↑ x1.5
K+ voltage-gated channel, KQT-like subfamily, member3 ↓ [2]: ↓ x2.5
Na+ channel, voltage-gated, type I, β polypeptide ↑ [2]: β polypeptide ↑ x2
Neuroblastoma apoptosis-related RNA bindingprotein ↓ [2]: ↓ x3
PDGFR α ↑ [2]: PDGFR α ↑ x2.5
PDGFR, α polypeptide ↑ [2]: α polypeptide ↑ x1.5
PI-4-kinase, catalytic, α polypeptide ↑ [2]: α polypeptide ↑ x1.5
PL A2, group IVC (cytosolic, calcium-independent) ↑ [2]: independent) ↑ x1.5
Phosphotyrosine independent ligand p62B for the Lck SH2 domain B-cell isoform ↓ [2]: isoform ↓ x2
Prostacyclin synthase ↑ [2]: ↑ x2
SSTR2 ↓ [2]: SSTR2 ↓ x1.5
Smad 3 ↓ [2]: Smad 3 ↓ x1.5
THR binding protein ↓ [2]: ↓ x2
THR interactor 10 ↑ [2]: ↑ x2.5
Thrombospondin 2 ↑ [2]: ↑ x3.5
1-PI-4-phosphate 5-kinase isoform C ↓ [3]: kinase isoform C ↓ x1.5
ANP (atrial natriuretic peptide precursor B) ↑ [3]: peptide precursor B) ↑ x2
ATP(GTP)-binding protein ↑ [3]: protein ↑ x1.5
ATPase, Ca++ transporting cardiac muscle, slow twitch 2 ↑ [3]: ↑ x1.5
ATPase, H+/K+ exchanging, α polypeptide ↓ [3]: ↓ x5
ATPase, Na+/K+ transporting, α2(+) polypeptide ↑ [3]: polypeptide ↑ x2.5
ATPase, Na+/K+ transporting, β3 polypeptide ↑ [3]: polypeptide ↑ x2.5
Adrenomedullin ↑ [3]: Adrenomedullin ↑ x2.5
Arg PTK-binding protein ↓ [3]: protein ↓ x2.5
BCL2-antagonist of cell death ↑ [3]: death ↑ x2
BCL2-associated athanogene ↑ [3]: athanogene ↑ x2
BCL2/adenovirus E1B 19 kD-interacting protein 3 ↑ [3]: ↑ x1.5
Bax γ ↑ [3]: Bax γ ↑ x1.5
Brain cannabinoid receptor 1 ↑ [3]: receptor 1 ↑ x2
Butyrate response factor 2 (EGF-response factor 2) ↑ [3]: ↑ x3
CC chemokines STCP-1 ↑ [3]: ↑ x1.5
CD36 antigen ↓ [3]: CD36 antigen ↓ x2
Calcium/calmodulin-dependent protein kinase I ↑ [3]: kinase I ↑ x2.5
Catenin (cadherin-associated protein), α1 (102 kD) ↓ [3]: α1 (102 kD) ↓ x1.5
Cdki2C (p18, inhibits CDK4) ↑ [3]: CDK4) ↑ x2
Cdki2D (p19, inhibits CDK4) ↑ [3]: CDK4) ↑ x1.5
Cell division cycle 25B ↑ [3]: ↑ x5
Cholecystokinin receptor ↓ [3]: receptor ↓ x4.5
Cholinergic receptor, muscarinic 3 ↓ [3]: muscarinic 3 ↓ x3
Cholinergic receptor, nicotinic, β polypeptide 4 ↓ [3]: β polypeptide 4 ↓ x2
